These are literature values, as cited in US20050220753A1, “Hydrophilic polymers-flavoids conjugates and pharmaceutical compositions comprising them” (BEIJING JIANKAI TECHNOLOGY CO., LTD, priority 2002, published 2005).

Where two headings read alike, the source gives them in different places.

For data set [1] the following is noted: rats, intravenous injection.
The conditions of data set [2]: human, intravenously infused.

Consider `O=c1cc(-c2ccccc2)oc2cc(O)c(O)c(O)c12` [Baicalein], for which, in data set [1], the absorption half-life was 13 min and the elimination half-life was 42 min. With `O=c1c(-c2ccc(O)cc2)coc2c([C@@H]3O[C@H](CO)[C@@H](O)[C@H](O)[C@H]3O)c(O)ccc12` [Puerarin], the elimination half-life in data set [2] was 74 min.
